Each block holds one compound with its values, some of them ahead of it.
Legend:
[1] = molecular target: T1, human SPHK-2 (Homo sapiens, UniProt Q9NRA0); assay: Phosphorylation of fluorescent labeled sphingosines by SPHK-2 ([γ-32P]ATP, TLC); type: biochemical; conditions: for rate of phosphorylation (phosphate conversion rate) relative to sphingosine (=1), SPHK-2: 20 μM substrate, cytoplasmic fraction of HEK-293 cells overexpressing human SPHK-2
T1 construct: expressed in transfected cells; host or cells: HEK-293 (cytoplasmic fraction)
T1 sequence (Q9NRA0 1-654): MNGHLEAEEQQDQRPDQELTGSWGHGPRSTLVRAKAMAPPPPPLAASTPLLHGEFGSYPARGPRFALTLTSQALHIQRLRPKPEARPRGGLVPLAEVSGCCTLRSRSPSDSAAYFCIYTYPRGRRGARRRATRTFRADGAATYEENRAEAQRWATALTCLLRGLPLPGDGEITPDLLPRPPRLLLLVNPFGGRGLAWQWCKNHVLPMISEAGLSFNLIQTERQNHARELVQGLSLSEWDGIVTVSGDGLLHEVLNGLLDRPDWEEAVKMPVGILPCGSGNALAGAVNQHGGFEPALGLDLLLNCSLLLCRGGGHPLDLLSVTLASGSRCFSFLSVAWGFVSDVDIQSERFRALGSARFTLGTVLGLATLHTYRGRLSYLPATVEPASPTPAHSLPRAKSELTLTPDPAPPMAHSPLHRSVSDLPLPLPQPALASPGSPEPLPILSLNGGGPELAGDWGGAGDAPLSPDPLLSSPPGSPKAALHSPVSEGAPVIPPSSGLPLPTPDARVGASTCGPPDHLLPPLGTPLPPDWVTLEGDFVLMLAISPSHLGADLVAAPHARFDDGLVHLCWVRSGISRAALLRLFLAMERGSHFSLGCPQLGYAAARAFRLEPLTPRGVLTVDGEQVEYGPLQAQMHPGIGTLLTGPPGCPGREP
Experimental: (§1) The phosphorylation reactions are performed essentially as follows. The cytoplasmic fraction of recombinant HEK-293 cells overexpressing human SPHK-1 or -2 is incubated at 30° in total volumes of 100 μl with SP derivatives (20 μM; added from stock solutions in DMSO), 1 mM of ATP, and 2 μCi [γ-^32P]ATP in 50 mM Hepes buffer (pH 7.4) containing 15 mM MgCl2, 0.005% Triton X-100, 10 mM KCl , 10 mM NaF and 1.5 mM semicarbazide. Following incubations for different time points up to 2 hours, lipids are extracted and separated by TLC-plates (Merck). TLC is performed on silica plates, using either BuOH/acetic acid/H2O 3:1:1 or CHCl3/MeOH/H2O/NH4OH (28^w/w%) 200:150:29:1 as the mobile phase. In these systems sphingosine and the compound of Example 4 co-migrate. Identity of the metabolites with pyrene-labeled SPP and sphingomyelin (SM) is established by co-migration with commercially available tritium-labeled SPP and SM as standards.
(§2) Radiolabeled SPP derivatives are visualized and quantified using a Molecular Dynamics Storm Phosphorlmager (Sunnyvale, Calif.). The rate of phosphorylation is calculated and is reported for the fluorescent labeled sphingosines as value relative to the rate for sphingosine (for which the rate is 41 and 25 nmol/min/mg with SPHK-1 and -2, respectively).
(§3) The fluorescently labeled sphingosines of examples 1-7 are used as substrates for human recombinant SPHK-1 and SPHK-2 and all of them are converted to phosphorylated derivatives as visualized by the incorporation of radiolabeled phosphate upon incubation with [γ-32P]ATP and the kinases. The rates of phosphorylation (phosphate conversion rate) are determined and summarized in Table A relative to the natural substrate sphingosine (=SP), which has the assumed value of 1.

[2] = molecular target: T2, human SPHK-1 (Homo sapiens, UniProt Q9NYA1); assay: Phosphorylation of fluorescent labeled sphingosines by SPHK-1 ([γ-32P]ATP, TLC); type: biochemical; conditions: for rate of phosphorylation (phosphate conversion rate) relative to sphingosine (=1), SPHK-1: 20 μM substrate, cytoplasmic fraction of HEK-293 cells overexpressing human SPHK-1; for reduction of phosphorylation efficiency (factor), SPHK-1: compared to compound of example 4; for times (fold) less efficiently converted to the phosphate than SP, SPHK-1: compared to sphingosine (SP)
T2 construct: expressed in transfected cells; host or cells: HEK-293 (cytoplasmic fraction)
Experimental: as §1, §2, §3

[3] = system: sphingosine kinase; assay: Fluorimetric assay of sphingosine kinase activity; type: biochemical
Text: We have determined that sphingosine kinase in the presence of ATP phosphorylates a compound COMPA (compound of Example 23), which is a fluorescent labeled sphingosine, to obtain a corresponding phosphorylated compound COMPA-P (compound of Example 24) according to the Reaction SCHEME 4 as set out below.
wherein residues are as defined above and R3 is H. such as phosphorylation of a compound of Example […] by a sphingosine kinase to obtain a compound of Example […] in the presence of ATP. COMPA and COMPB are separated by liquid-liquid extraction. Fluorescence as a measure of enzyme activity of a compound of formula COMPA-P in the aqueous phase is quantified. In detail:
Sphingosine kinase is incubated in total volumes of 100 μl with a compound of formula COMPA (20 μM, added from stock solutions in DMSO) and ATP (1 mM) in 50 mM Hepes buffer, pH 7.4, containing 15 mM MgCl2, 0.005% Triton X-100, 10 mM KCl for 30 minutes at 30° and to the mixture obtained 100 μl 1 M potassium phosphate buffer, pH 8.5, followed by 250 μl CHCl3/MeOH 2:1 are added. […]
Fluorescence intensity is measured in a plate reader with excitation at 485 nm and emission at 538 nm. […] From the fluorescence intensity, concentrations of a compound of formula COMPA-P are calculated using appropriate calibration curves in the same solvent system. […]

[4] = system: human endothelial cells (HUVEC); assay: Uptake, subcellular distribution and metabolism of fluorescent labeled sphingosines in human endothelial cells; type: cell-based
Text: To examine the uptake, subcellular distribution and metabolism (conversion to the phosphate) in human endothelial cells (HUVEC), the pyrene labeled sphingosine of example 4 is used. […] Furthermore, the compound is converted intracellularly into 4 products as shown by thin-layer chromatography.

[5] = system: HUVEC overexpressing SPHK-1 or SPHK-2; assay: Sphingolipid turnover of labeled sphingosines in HUVEC transiently transfected with SPHK-1 and SPHK-2; type: cell-based, human; conditions: FIG. 3, transfected cells, TLC
Experimental: HUVEC as described in Test Example 4 are seeded in 6-well plates at 50% confluency and grown overnight. Grown cells obtained are transfected using Lipofectamine Plus reagent with an empty vector (GFP-vector from Clontech) alone and GFP-tagged expression constructs coding for SPHK-1 and SPHK-2. Transfection is carried out for 20 hours. To the transfected cells obtained a labeled compound of formula I wherein X is (HO)2PO is added at 2 μM and incubated for 0.5 hours, 1 hour and 3 hours, respectively. Lipids are extracted and the extraction residue obtained is subjected to TLC using BuOH/AcOH/H2O 3:1:1 as a solvent system. TLC plates obtained are scanned using CCD camera and density of the lipid products obtained is measured using AlphaImage 2200 (see FIG. 3).

T2 sequence (Q9NYA1 whole entry): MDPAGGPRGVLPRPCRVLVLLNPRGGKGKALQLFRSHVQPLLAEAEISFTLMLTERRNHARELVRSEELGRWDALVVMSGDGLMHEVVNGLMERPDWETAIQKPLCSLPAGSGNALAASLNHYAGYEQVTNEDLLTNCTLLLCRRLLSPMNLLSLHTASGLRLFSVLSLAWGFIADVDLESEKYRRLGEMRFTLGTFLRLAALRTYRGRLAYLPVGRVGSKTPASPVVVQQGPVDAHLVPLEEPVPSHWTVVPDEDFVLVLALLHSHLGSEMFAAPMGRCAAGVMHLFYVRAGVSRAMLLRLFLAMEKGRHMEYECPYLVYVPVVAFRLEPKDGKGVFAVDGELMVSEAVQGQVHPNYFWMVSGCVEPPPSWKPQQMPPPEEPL

Structure (SMILES): N[C@@H](CO)[C@H](O)/C=C/CCCCCCCCCCNC(=O)c1cc2ccc3cccc4ccc(c1)c2c34 [Example 5]
rate of phosphorylation (phosphate conversion rate) relative to sphingosine (=1), SPHK-2 ([1]; 1 mM ATP, 30°): 0.59 | reduction of phosphorylation efficiency (factor), SPHK-2 ([1]; compared to compound of example 4): 3 | rate of phosphorylation (phosphate conversion rate) relative to sphingosine (=1), SPHK-1 ([2]; 1 mM ATP, 30°): 0.28 | reduction of phosphorylation efficiency (factor), SPHK-1 [2]: 2

Structure (SMILES): N[C@@H](CO)[C@H](O)/C=C/CCCCCCCCCCOC(=O)c1cc2ccc3cccc4ccc(c1)c2c34 [Example 4]
rate of phosphorylation (phosphate conversion rate) relative to sphingosine (=1), SPHK-2 ([1]; 1 mM ATP, 30°): 1.25 | phosphorylation by SPHK-1 (in words) [2]: almost equal phosphorylation by SPHK-1 relative to natural SP | rate of phosphorylation (phosphate conversion rate) relative to sphingosine (=1), SPHK-1 ([2]; 1 mM ATP, 30°): 0.83 | degradation of the ester functionality ([2]; short term in vitro phosphorylation experiments): no degradation is observed | time to incorporation into the cells after addition [4]: ≤ 5 min | subcellular distribution ([4]; after 15-30 minutes of incubation): predominantly distribution to the endoplasmic reticulum and to the Golgi apparatus | major metabolite ([4]; thin-layer chromatography): co-migrates with sphingosine-1-phosphate (SPP) | number of products formed intracellularly ([4]; thin-layer chromatography): 4

Structure (SMILES): N[C@@H](CO)[C@H](O)/C=C/CCCCCCCCCCNS(=O)(=O)c1cc2ccc3cccc4ccc(c1)c2c34 [Example 6]
phosphorylation by SPHK-2 (in words) [1]: almost as efficiently as SP | rate of phosphorylation (phosphate conversion rate) relative to sphingosine (=1), SPHK-2 ([1]; 1 mM ATP, 30°): 0.83 | rate of phosphorylation (phosphate conversion rate) relative to sphingosine (=1), SPHK-1 ([2]; 1 mM ATP, 30°): 0.051 | reduction of phosphorylation efficiency (factor), SPHK-1 [2]: about 20

Structure (SMILES): N[C@@H](CO)[C@H](O)/C=C/CCCOC(=O)CCCCCc1cc2ccc3cccc4ccc(c1)c2c34 [Example 2]
rate of phosphorylation (phosphate conversion rate) relative to sphingosine (=1), SPHK-2 ([1]; 1 mM ATP, 30°): 0.83 | rate of phosphorylation (phosphate conversion rate) relative to sphingosine (=1), SPHK-1 ([2]; 1 mM ATP, 30°): 0.078 | improvement of phosphorylation rate by a factor, SPHK-1 ([2]; compared to example 1): 2

Structure (SMILES): N[C@@H](CO)[C@H](O)/C=C/CCCOC(=O)CCCc1cc2ccc3cccc4ccc(c1)c2c34 [Example 1]
rate of phosphorylation (phosphate conversion rate) relative to sphingosine (=1), SPHK-2 ([1]; 1 mM ATP, 30°): 0.14 | rate of phosphorylation (phosphate conversion rate) relative to sphingosine (=1), SPHK-1 ([2]; 1 mM ATP, 30°): 0.048 | times (fold) less efficiently converted to the phosphate than SP, SPHK-1 [2]: about 20

Structure (SMILES): N[C@@H](CO)[C@H](O)/C=C/CCCCCCCCCCNc1ccc([N+](=O)[O-])c2nonc12 [Example 24]
phosphorylation in cells overexpressing SPHK-1 versus SPHK-2 [5]: phosphorylated more efficient by SPHK-2 than by SPHK-1

The next lines start with the values.

phosphorylation by sphingosine kinase in the presence of ATP [3]: phosphorylates
Structure (SMILES): N[C@H](COCCCCCCCCCCCNc1ccc([N+](=O)[O-])c2nonc12)COP(=O)(O)O [Example 23, Phosphoric acid mono-{(R)-2-amino-3-[11-(7-nitro-benzo[1,2,5]oxadiazol-4-ylamino)-undecyloxy]-propyl}ester]

rate of phosphorylation (phosphate conversion rate) relative to sphingosine (=1), SPHK-2 ([1]; 1 mM ATP, 30°): 0.026 | rate of phosphorylation (phosphate conversion rate) relative to sphingosine (=1), SPHK-1 ([2]; 1 mM ATP, 30°): 0.063
Structure (SMILES): CN(C)c1cccc2c(S(=O)(=O)NCCCCCCCCCC/C=C/[C@@H](O)[C@@H](N)CO)cccc12 [Example 7]

rate of phosphorylation with SPHK-2 ([1]; 20 μM, 1 mM ATP, 30°): 25 nmol/min/mg | rate of phosphorylation with SPHK-1 ([2]; 20 μM, 1 mM ATP, 30°): 41 nmol/min/mg
Structure (SMILES): CCCCCCCCCCCCC/C=C/[C@@H](O)[C@@H](N)CO [sphingosine]

rate of phosphorylation (phosphate conversion rate) relative to sphingosine (=1), SPHK-2 ([1]; 1 mM ATP, 30°): 0.065 | rate of phosphorylation (phosphate conversion rate) relative to sphingosine (=1), SPHK-1 ([2]; 1 mM ATP, 30°): 0.024 | times (fold) less efficiently converted to the phosphate than SP, SPHK-1 [2]: about 40
Structure (SMILES): N[C@@H](CO)[C@H](O)/C=C/CCCOC(=O)CCCCCCCCCc1cc2ccc3cccc4ccc(c1)c2c34 [Example 3]

Reference: patent US20080318255A1, “Fluorescent Labeled Sphingosines” (priority 2003, published 2008)
